Consider 58 molecules from US12534456B2, “Heterocyclyl pyridines as novel fungicides” (Bayer Aktiengesellschaft, priority 2020, dated 2026).

The nature of one data set: physchem. It counts as physicochemical.
Details: not given
How it is done: Measurement of Log P values as provided herein was performed according to EEC directive 79/831 Annex V.A8 by HPLC (High Performance Liquid Chromatography) on reversed phase columns with the following methods: • ^[a]
If more than one Log P value is available within the same method, all the values are given and separated by “+”.
Lambda-max-values were determined using UV-spectra from 200 nm to 400 nm and the peak values of the chromatographic signals
`COc1cccc(Oc2cnc(Cl)cc2C(=O)NC(CON2C(=O)c3ccccc3C2=O)Cc2ccc(Br)cc2Cl)c1` (stereo not shown) [3-08]: the LogP is 5.05^[a].
On the same count and under the same terms, to `Cc1ccc(CC(CCl)NC(=NO)c2c(Oc3cccc(C(F)(F)F)c3)cnc(Cl)c2I)c(C)c1` (stereo not shown) [16-05] belongs 5.28^[a]; to `OC1CON=C(c2cc(Cl)ncc2Oc2cccc(C(F)(F)F)c2)N1` (stereo not shown) [Compound 32-01], 2.11^[a].
`Cc1ccc(CC2CON=C(c3c(Oc4cccc(C(F)(F)F)c4)cnc(Cl)c3-c3ccccc3)N2)c(C)c1` (stereo not shown) [Compound I-133]: the LogP was 5.04^[a].
`Cc1ccc(CC2CON=C(c3cc(Cl)ncc3Oc3cccc(C4CC4)c3F)N2)c(C)c1` (single isomer, unassigned) [Compound I-022]: the LogP was 4.93^[a].
The same measure, in the same setting: to `FC(F)(F)c1cccc(Oc2cnc(Cl)cc2C2=NOCC(c3ccc4c(c3)CCC4)N2)c1` (racemic) [Compound I-054] belongs 4.41^[a].
On the same count and under the same terms, to `Cc1ccc(C2CCON=C(c3cc(Cl)ncc3Oc3cccc(C(F)(F)F)c3)N2)cc1` (stereo not shown) [Compound I-146] belongs 2.06^[a]; to `Cc1cccc(CC(CCl)NC(=O)c2cc(Cl)ncc2Br)c1Cl` (stereo not shown) [17-05], 3.97 ^[a]; to `Cc1ccc(CC2CN=C(c3cc(Cl)ncc3Oc3cccc(C(F)(F)F)c3)N2)c(C)c1` (racemic) [Compound I-081], 2.64^[a].
The same measure, in the same setting: to `O=C(O)c1cc(Cl)ncc1Oc1cccc(Cl)c1` [Compound 1-11] belongs 2.76^[a]; to `Cc1ccc(CC2CON=C(c3cc(Cl)ncc3Oc3cccc(N(C)C)c3)N2)c(C)c1` (stereo not shown) [Compound I-132], 4.47^[a].
With `C#Cc1ccc(CC2CON=C(c3cc(Cl)ncc3Oc3cccc(C(F)(F)F)c3)N2)c(C)c1` (stereo not shown) [Compound I-156], the LogP is 4.08^[a].
On the same count and under the same terms, with `Cc1ccc(CC2CON=C(c3cc(Cl)ncc3Oc3cccc(C4CC4)c3)N2)c(C)c1` (single isomer, unassigned) [Compound I-020] the figure was 4.89^[a]; with `ON=C(NC(CCl)Cc1csc(C(F)(F)F)c1)c1cc(Cl)ncc1Oc1cccc(C(F)(F)F)c1` (stereo not shown) [16-10], 4.59^[a].
Take `CC(=O)OC1ON=C(c2cc(Cl)ncc2Oc2cccc(C(F)(F)F)c2)NC1c1ccc(Cl)cc1` (mixture of isomers) [Compound I-073]: the LogP is 4.08^[a].
Still for that read-out and setting: with `Cc1ccc(CC(CCl)NC(=O)c2cc(Cl)ncc2Oc2cccc(C(F)(F)F)c2)c(C)c1` (stereo not shown) [14-02] the figure was 5.32^[a].
Same read-out and setting: with `Cc1ccc(CC2CON=C(c3cc(Cl)ncc3Oc3cccc(C4CC4)c3)N2)c(C)c1` (single isomer, unassigned) [Compound I-019] the figure was 4.89^[a].
As to `Cc1ccc(CC2CON=C(c3cc(Cl)ncc3Br)N2)c(Cl)c1` (stereo not shown) [7-05], the LogP was 3.38^[a].
Same read-out and setting: with `NOCC(Cc1ccc(Br)cc1Cl)NC(=O)c1cc(Cl)ncc1Oc1cccc(C(F)F)c1` (stereo not shown) [4-10] the figure was 3.46^[a]; with `C=Cc1cccc(Oc2cnc(Cl)cc2C2=NOCC(Cc3ccc(Cl)cc3Cl)N2)c1` (racemic) [Compound I-099], 4.85^[a]; with `Clc1ccc(CC2CON=C(c3cc(Cl)ncc3Oc3cccc(C4CC4)c3)N2)c(Cl)c1` (racemic) [Compound I-025], 4.98^[a].
Still for that read-out and setting: with `C=C(OCC)c1cc(C(=O)OC)c(Oc2cccc(C(F)(F)F)c2)cn1` [Compound 1-05] the figure was 4.70^[a].
Still for that read-out and setting: to `CC1(C)ON=C(c2cc(Cl)ncc2Oc2cccc(C(F)(F)F)c2)NC1c1ccc(F)cc1F` (racemic) [Compound I-043] belongs 4.30^[a]; to `Cc1ccc(CC2CON=C(c3cc(Cl)ncc3Oc3cccc(S(C)(=O)=O)c3)N2)c(C)c1` (racemic) [Compound I-095], 3.25^[a]; to `Cc1ccc(CC2CON=C(c3cc(Cl)nc(Cl)c3Oc3cccc(C(F)(F)F)c3)N2)c(C)c1` (racemic) [Compound I-127], 5.08^[a].
For the molecule `Cc1ccc(CC2CON=C(c3cc(Cl)ncc3Oc3ccc(C)c(Cl)c3)N2)c(C)c1` (racemic) [Compound I-076], the LogP is 4.97^[a].
Consider `COc1cc(C(=O)O)c(Oc2cccc(C(F)(F)F)c2)cn1` [Compound 1-15], for which the LogP is 2.86^[a].
Same read-out and setting: with `COc1cc(C2=NOCC(Cc3ccc(C)cc3C)N2)c(Oc2cccc(C(F)(F)F)c2)cn1` (stereo not shown) [Compound I-152] the figure was 4.55^[a]; with `Cc1ccc(CC(CCl)NC(=O)c2c(Oc3cccc(C(F)(F)F)c3)cnc(Cl)c2F)c(C)c1` (stereo not shown) [14-01], 5.03^[a].
As for `C#Cc1cccc(Oc2cnc(Cl)cc2C2=NOCC(Cc3ccc(C)cc3C)N2)c1` (racemic) [Compound I-075], the LogP was 4.33^[a].
Still for that read-out and setting: with `Cn1cc(-c2ccc(CC3CON=C(c4cc(Cl)ncc4Oc4cccc(C(F)F)c4)N3)c(Cl)c2)cn1` (racemic) [Compound I-037] the figure was 3.37^[a].
Still for that read-out and setting: with `COc1cccc(Oc2cnc(Cl)cc2C2=NOCC(Cc3ccc(C)cc3C)N2)c1` (racemic) [Compound I-005] the figure was 4.18^[a].
The same measure, in the same setting: with `Cn1cc(C2CON=C(c3cc(Cl)ncc3Oc3cccc(C(F)(F)F)c3)N2)c2ccccc21` (racemic) [Compound I-096] the figure was 4.01^[a]; with `Fc1cccc(Oc2cnc(Cl)cc2C2=NOCC(Cc3ccc(Cl)cc3Cl)N2)c1F` (racemic) [Compound I-071], 4.40^[a].
For the molecule `Cc1ccc(CC2CON=C(c3cc(C(F)(F)F)ncc3Oc3cccc(C4CC4)c3F)N2)c(C)c1` (racemic) [Compound I-033], the LogP was 5.20^[a].
Still for that read-out and setting: to `Cc1ccc(CC2CON=C(c3cc(Cl)ncc3Oc3cccc(C)c3F)N2)c(Cl)c1` (stereo not shown) [Compound I-136] belongs 4.66^[a]; to `O=C(NC(CON1C(=O)c2ccccc2C1=O)Cc1ccc(Cl)cc1Cl)c1cc(Cl)ncc1Oc1cccc(C2CC2)c1` (stereo not shown) [3-03], 5.62^[a].
Same read-out and setting: to `Cc1ccc(CC2CON=C(c3cc(C)ncc3Oc3cccc(C4CC4)c3)N2)c(C)c1` (racemic) [Compound I-015] belongs 3.94^[a]; to `Cc1cc(Cl)ccc1CC1CON=C(c2cc(Cl)ncc2Br)N1` (stereo not shown) [7-06], 3.44^[a].
Still for that read-out and setting: to `Cc1ccc(C2CON=C(c3cc(Cl)ncc3Oc3cccc(C(F)(F)F)c3)N2)cc1` (racemic) [Compound I-048] belongs 3.96^[a].
`Cc1ccc(CC2CON=C(c3cc(Cl)ncc3Oc3cccc(C4CC4)c3F)N2)c(C)c1` (single isomer, unassigned) [Compound I-021]: the LogP was 4.93^[a].
In the case of `Cc1ccc(CC(CCl)NC(=O)c2cc(Cl)nc(Cl)c2Oc2cccc(C(F)(F)F)c2)c(C)c1` (stereo not shown) [14-07], the LogP is 5.45^[a].
On the same count and under the same terms, with `FC(F)(F)c1cccc(Oc2cnc(Cl)cc2C2=NOCC(c3ccccc3)N2)c1` (racemic) [Compound I-070] the figure was 3.64^[a]; with `Cc1ccc(CC2CON=C(c3cc(Cl)ncc3Oc3cccc(C4COC4)c3)N2)c(C)c1` (racemic) [Compound I-113], 3.68^[a].
With `Cc1ccc(CC2CON=C(c3cc(Cl)ncc3Oc3ccccc3)N2)c(C)c1` (racemic) [Compound I-063], the LogP was 4.17^[a].
Same read-out and setting: to `FC(F)(F)Oc1ccc(C2CON=C(c3cc(Cl)ncc3Oc3cccc(C(F)(F)F)c3)N2)cc1` (racemic) [Compound I-055] belongs 4.26^[a]; to `Cc1ccc(CC2CON=C(c3cc(Cl)ncc3Oc3cccc(OC(F)F)c3)N2)c(C)c1` (racemic) [Compound I-065], 4.38^[a]; to `Cc1ccc(CC2CON=C(c3c(Oc4cccc(C(F)(F)F)c4)cnc(Cl)c3C3CC3)N2)c(C)c1` (stereo not shown) [Compound I-150], 4.70^[a].
As for `CSc1cccc(Oc2cnc(Cl)cc2C2=NOCC(Cc3ccc(C)cc3C)N2)c1` (racemic) [Compound I-064], the LogP is 4.66^[a].
Regarding `COc1cccc(Oc2cnc(Cl)cc2C(=O)NC(CON)Cc2ccc(Br)cc2Cl)c1` (stereo not shown) [4-08], the LogP is 3.39^[a].
Still for that read-out and setting: to `Fc1c(Br)cccc1Oc1cnc(Cl)cc1C1=NOCC(Cc2ccc(Cl)cc2Cl)N1` (racemic) [Compound I-115] belongs 4.69^[a]; to `Cc1ccc(CC2CON=C(c3cc(Cl)ncc3Oc3ccc4ccsc4c3)N2)c(C)c1` (racemic) [Compound I-119], 4.59^[a].
The same measure, in the same setting: to `Cc1cccc(CC2CON=C(c3cc(Cl)ncc3Br)N2)c1Cl` (stereo not shown) [7-07] belongs 3.44^[a].
The same measure, in the same setting: to `Cc1ccc(CC2CON=C(c3cc(C)ncc3Oc3cccc(C4CC4)c3F)N2)c(C)c1` (racemic) [Compound I-017] belongs 4.03^[a]; to `COCCOc1c(Cl)ncc(Oc2cccc(C(F)(F)F)c2)c1C1=NOCC(Cc2ccc(C)cc2C)N1` (racemic) [Compound I-129], 4.51^[a].

Still in this data set, the particulars now being: Table 3, compounds of formula (1); method [a]: LC-UV, acidic range, 0.1% formic acid in water and acetonitrile.
As to `O=C(O)c1cc(Cl)ncc1Oc1cccc(C(F)(F)F)c1` [Compound 1-13, 2-chloro-5-[3-(trifluoromethyl)phenoxy]isonicotinic acid], the chromatographic logP came out at 2.84.

Still in this data set, the particulars now being: Table 11, compounds of formula (6); method [a]: LC-UV, acidic range, 0.1% formic acid in water and acetonitrile.
As for `Cc1ccc(CC(CON)NC(=O)c2cc(C(F)(F)F)ncc2Br)c(C)c1` (racemic) [Compound 6-03, N-[(2RS)-1-(aminooxy)-3-(2,4-dimethylphenyl)propan-2-yl]-5-bromo-2-(trifluoromethyl)isonicotinamide], the chromatographic logP stood at 2.51.

The data set is the same for the next values; noted with them: Table 17, compounds of formula (12); method [a]; several values joined by + in some cells.
Take `COc1ccc(C(=O)C(F)(F)ON=C(N)c2cc(Cl)ncc2Oc2cccc(C(F)(F)F)c2)cc1` [Compound 12-09, 2-chloro-N′-[1,1-difluoro-2-(4-methoxyphenyl)-2-oxoethoxy]-5-[3-(trifluoromethyl)phenoxy]pyridine-4-carboximidamide]: the chromatographic logP is 3.65.

One may read the chromatographic logP as lipophilicity estimated from chromatographic retention.
